Data from patent US8404434B2, “Method for determining degree of negative effect of macrophages on vertebrate” (Yamasa Corporation, priority 2006, dated 2013).

Tests used:
Peritoneal macrophages [1] = test: Diacetylspermine production by cultured macrophages with the tricarboxylate carrier inhibitor BTA; type: cell-based, mice
Protocol: (§1) Peritoneal macrophages collected from mice injected with thioglycollate were inoculated into a 96-well microplate (1.25×10^5 cells/well), followed by culturing. In this case, cell culture was performed by use of RPMI 1640 medium containing 10% horse serum, the medium being supplemented with spermine (i.e., a raw material of diacetylpolyamine) (10 μM) and glucose (0, 1, or 2 g/L).
(§2) After completion of culturing, the levels of diacetylspermine and residual glucose contained in the medium were measured through a customary method. As is clear from FIG. 1, diacetylspermine is produced in response to depletion of glucose.
In order to examine the origin of acetyl CoA (i.e., a raw material of diacetylpolyamine), 1,2,3-benzyltricarboxylate (BTA), which is an inhibitor of a tricarboxylate carrier used for transportation of citrate from mitochondria to the cytoplasm, was added in an amount of 10 mM to a medium supplemented with no glucose, followed by measurement of diacetylspermine level.

Peritoneal macrophages [2] = test: Diacetylspermine production by cultured macrophages with the uncoupler DNP; type: cell-based, mice; details: DNP 100 μM in medium, glucose 2 g/L, spermine 10 μM, cultured for two days; level in medium
Protocol: as §1, §2
Dinitrophenol (DNP), which is a reagent called “uncoupler” that forcibly reduces the active potential of mitochondria, is added to a medium in an amount of 100 μM, followed by culturing for two days in a manner similar to that described above. After completion of culturing, diacetylspermine level was measured. The medium was supplemented with glucose in an amount of 2 g/L.

Compound | Diacetylspermine (Peritoneal macrophages [1]; BTA 10 mM in medium supplemented with no glucose, level in medium) [nM] | production of diacetylspermine (Peritoneal macrophages [1]; BTA 10 mM, medium without glucose, result in words) | Diacetylspermine (Peritoneal macrophages [2]) [nM]
O=C(O)c1cccc(C(=O)O)c1C(=O)O [BTA, 1,2,3-benzyltricarboxylate] | 43.0 | inhibited | 
O=[N+]([O-])c1ccc(O)c([N+](=O)[O-])c1 [DNP, Dinitrophenol] |  |  | 61.8
